Results: patent US20230349907A1, “BIOPROBES FOR LYSYL OXIDASES AND USES THEREOF” (Pharmaxis Ltd., priority 2020, published 2023)
Counter-ions that a name gives are not always drawn.

What was measured:
[1] = molecular target: rhLOXL2 (Homo sapiens (Human), UniProt Q9Y4K0); experiment: LOXL2 inhibition, peroxidase-coupled Amplex Red assay; assay type: biochemical; details: 30 min preincubation at 37° C.
Text: (§1) Method to Determine the Ability of Compounds of the Invention to Inhibit LOX and LOXL1-4 from Different Sources […] S., Trackman P. C. and Kagan H. M., Reaction of aortic lysyl oxidase with beta-aminoproprionitrile. J Biol Chem 1983; 258: 4331-4338). There are five LOX family members; these are LOX, LOXL1, LOXL2, LOXL3 and LOXL4. LOX and LOXL family members can be acquired as recombinant active proteins from commercial sources, or extracted from animal tissues like bovine aorta, tendons, pig skin; or prepared from cell cultures. The inhibitory effects of the compounds of the present invention were tested against the given LOX-LOXL preparation using a high-throughput coupled colorimetric method (Holt A. and Palcic M., A peroxidase-coupled continuous absorbance plate-reader assay for flavin monoamine oxidases, copper-containing amine oxidases and related enzymes. Nat. Protoc. 2006; 1: 2498-2505). The assay was developed using either 384 or 96 well format. […] Test compounds were dissolved in DMSO and tested in a Concentration Response Curve (CRC) with 11 data points, typically in the micromolar or nanomolar range after incubation with the enzyme for 30 min at 37° C. 25 μL of a reaction mixture containing twice the KM concentration of putrescine (Sigma Aldrich, e.g. 20 mM for LOX, or 10 mM for LOXL2 and LOXL3), 120 μM Amplex Red (Sigma Aldrich) and 1.5 U/mL horseradish peroxidase (Sigma Aldrich) prepared in 1.2 M urea, 50 mM sodium borate buffer (pH 8.2) were then added to the corresponding wells. The above volumes were doubled in the case of 96 well plates. The fluorescence (RFU) was read every 2.5 m n for 30 m u […], excitation 565 nm and emission 590 nm (Optima; BMG labtech). The slope of the kinetics for each well was calculated using MARS data analysis software (BMG labtech) and this value was used to deduce the IC50 value (Dotmatics).

[2] = molecular target: Bovine LOX (Bos taurus (Bovine), UniProt P33072); experiment: LOX inhibition, peroxidase-coupled Amplex Red assay; assay type: biochemical; details: 30 min preincubation at 37° C.
Chain of Bovine LOX (P33072 170-418): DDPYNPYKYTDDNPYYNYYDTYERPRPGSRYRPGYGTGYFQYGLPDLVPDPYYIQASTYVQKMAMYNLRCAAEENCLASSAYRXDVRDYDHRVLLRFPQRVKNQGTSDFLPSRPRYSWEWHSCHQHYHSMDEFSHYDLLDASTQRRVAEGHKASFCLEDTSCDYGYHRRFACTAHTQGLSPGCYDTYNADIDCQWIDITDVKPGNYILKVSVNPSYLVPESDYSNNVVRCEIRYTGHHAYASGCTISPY
Text: as §1

Chain of rhLOXL2 (Q9Y4K0 26-774): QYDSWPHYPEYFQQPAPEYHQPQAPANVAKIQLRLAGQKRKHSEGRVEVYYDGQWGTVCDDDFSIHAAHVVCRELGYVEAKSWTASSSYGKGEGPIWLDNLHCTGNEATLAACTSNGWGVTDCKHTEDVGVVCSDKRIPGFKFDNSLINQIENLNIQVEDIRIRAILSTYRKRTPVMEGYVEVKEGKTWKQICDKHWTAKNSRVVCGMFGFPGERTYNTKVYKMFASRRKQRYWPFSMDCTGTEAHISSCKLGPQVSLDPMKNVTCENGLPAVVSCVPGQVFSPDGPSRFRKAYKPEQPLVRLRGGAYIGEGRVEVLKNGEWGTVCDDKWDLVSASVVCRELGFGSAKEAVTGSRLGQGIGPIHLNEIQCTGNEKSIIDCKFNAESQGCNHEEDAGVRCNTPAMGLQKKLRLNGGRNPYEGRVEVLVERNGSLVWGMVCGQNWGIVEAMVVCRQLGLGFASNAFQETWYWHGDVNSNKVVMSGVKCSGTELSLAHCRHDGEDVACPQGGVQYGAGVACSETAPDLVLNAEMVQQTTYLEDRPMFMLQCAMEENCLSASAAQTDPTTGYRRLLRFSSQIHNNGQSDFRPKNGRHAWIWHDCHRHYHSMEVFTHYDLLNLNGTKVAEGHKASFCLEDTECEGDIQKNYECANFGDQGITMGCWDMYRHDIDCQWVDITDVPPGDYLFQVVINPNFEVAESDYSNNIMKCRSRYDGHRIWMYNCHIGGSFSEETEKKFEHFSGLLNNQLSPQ

| Compound | IC50 [1] [nM] | IC50 [2] [nM] |
| --- | --- | --- |
| Cc1c(-c2cccc(S(=O)(=O)N(C)C)c2)c2cc(C(=O)Nc3cc(C(=O)NCCCCCNC(=O)CCCC[C@@H]4SC[C@@H]5NC(=O)N[C@@H]54)cc(C(=O)NCCCCCNC(=O)CCCC[C@@H]4SC[C@@H]5NC(=O)N[C@@H]54)c3)ccc2n1C/C(F)=C/CN [Compound 1-5, 5-(1-((Z)-4-amino-2-fluorobut-2-en-1-yl)-3-(3-(N,N-dimethylsulfamoyl)phenyl)-2-methyl-1H-indole-5-carboxamido)-N^1,N^3-bis(5-(5-((3aS,4S,6aR)-2-oxohexahydro-1H-thieno[3,4-d]imidazol-4-yl)pentanamido)pentyl)isophthalamide hydrochloride] | < 300 | > 300 |
| Cc1c(-c2cccc(S(=O)(=O)N(C)C)c2)c2cc(C(=O)NCCCCCNC(=O)CCCC[C@@H]3SC[C@@H]4NC(=O)N[C@@H]43)ccc2n1C/C(F)=C/CN [Compound 1-2, 1-((Z)-4-amino-2-fluorobut-2-en-1-yl)-3-(3-(N,N-dimethylsulfamoyl)phenyl)-2-methyl-N-(5-(5-((3aS,4S,6aR)-2-oxohexahydro-1H-thieno[3,4-d]imidazol-4-yl)pentanamido)pentyl)-1H-indole-5-carboxamide] | < 300 | > 300 |
| NC/C=C(\F)CS(=O)(=O)c1ccc(C(=O)NCc2cn(CCOCCOCCOCCNC(=O)CCCC[C@@H]3SC[C@@H]4NC(=O)N[C@@H]43)nn2)cc1 [Compound 1-7, 4-(((Z)-4-amino-2-fluorobut-2-en-1-yl)sulfonyl)-N-((1-(13-oxo-17-((3aS,4S,6aR)-2-oxohexahydro-1H-thieno[3,4-d]imidazol-4-yl)-3,6,9-trioxa-12-azaheptadecyl)-1H-1,2,3-triazol-4-yl)methyl)benzamide hydrochloride] | > 300 | > 300 |
| NC/C=C(\F)CS(=O)(=O)c1ccccc1C(=O)NCCCCCNC(=O)CCCC[C@@H]1SC[C@@H]2NC(=O)N[C@@H]21 [Compound 1-8, 2-(((Z)-4-amino-2-fluorobut-2-en-1-yl)sulfonyl)-N-(5-(5-((3aS,4S,6aR)-2-oxohexahydro-1H-thieno[3,4-d]imidazol-4-yl)pentanamido)pentyl)benzamide hydrochloride] | > 300 | > 300 |
| Cc1c(-c2cccc(S(=O)(=O)N(C)C)c2)c2cc(-c3cn(-c4cc(C(=O)NCCCCCNC(=O)CCCC[C@@H]5SC[C@@H]6NC(=O)N[C@@H]65)cc(C(=O)NCCCCCNC(=O)CCCC[C@@H]5SC[C@@H]6NC(=O)N[C@@H]65)c4)nn3)ccc2n1C/C(F)=C/CN [Compound 1-6, 5-(4-(1-((Z)-4-amino-2-fluorobut-2-en-1-yl)-3-(3-(N,N-dimethylsulfamoyl)phenyl)-2-methyl-1H-indol-5-yl)-1H-1,2,3-triazol-1-yl)-N^1,N^3-bis(5-(5-((3aS,4S,6aR)-2-oxohexahydro-1H-thieno[3,4-d]imidazol-4-yl)pentanamido)pentyl)isophthalamide hydrochloride] | < 300 | > 300 |
| Cc1c(-c2cccc(S(=O)(=O)N(C)C)c2)c2cc(C(=O)Nc3ccc4c(c3)n(CCn3cc(CCNC(=O)CCCC[C@@H]5SC[C@@H]6NC(=O)N[C@@H]65)nn3)c(=O)n4CCn3cc(CCNC(=O)CCCC[C@@H]4SC[C@@H]5NC(=O)N[C@@H]54)nn3)ccc2n1C/C(F)=C/CN [Compound 1-4, N,N′-((((5-(1-((Z)-4-amino-2-fluorobut-2-en-1-yl)-3-(3-(N,N-dimethylsulfamoyl)phenyl)-2-methyl-1H-indole-5-carboxamido)-2-oxo-1H-benzo[d]imidazole-1,3(2H)-diyl)bis(ethane-2,1-diyl))bis(1H-1,2,3-triazole-1,4-diyl))bis(ethane-2,1-diyl))bis(5-((3aS,4S,6aR)-2-oxohexahydro-1H-thieno[3,4-d]imidazol-4-yl)pentanamide) hydrochloride] | < 300 | > 300 |
| NC/C=C(\F)CS(=O)(=O)c1cccc(C(=O)NCCCCCNC(=O)CCCC[C@@H]2SC[C@@H]3NC(=O)N[C@@H]32)c1 [Compound 1-9, 3-(((Z)-4-amino-2-fluorobut-2-en-1-yl)sulfonyl)-N-(5-(5-((3aS,4S,6aR)-2-oxohexahydro-1H-thieno[3,4-d]imidazol-4-yl)pentanamido)pentyl)benzamide hydrochloride] | > 300 | > 300 |
| Cc1c(-c2cccc(S(=O)(=O)N(C)C)c2)c2cc(C(=O)Nc3ccc4c(c3)n(Cc3cn(CCOCCOCCOCCNC(=O)CCCC[C@@H]5SC[C@@H]6NC(=O)N[C@@H]65)nn3)c(=O)n4Cc3cn(CCOCCOCCOCCNC(=O)CCCC[C@@H]4SC[C@@H]5NC(=O)N[C@@H]54)nn3)ccc2n1C/C(F)=C/CN [Compound 1-3, hydrochloride] | < 300 | > 300 |

Next, values leading:

| IC50 [1] [nM] | IC50 [2] [nM] | Compound |
| --- | --- | --- |
| < 300 | > 300 | NC/C=C(\F)CS(=O)(=O)c1cccc(OCCCc2cn(CCCCC[C@@H]3SC[C@@H]4NC(=O)N[C@@H]43)nn2)c1 [Compound 1-11, (3aS,4S,6aR)-4-(5-(4-(3-(3-(((Z)-4-amino-2-fluorobut-2-en-1-yl)sulfonyl)phenoxy)propyl)-1H-1,2,3-triazol-1-yl)pentyl)tetrahydro-1H-thieno[3,4-d]imidazol-2(3H)-one hydrochloride] |
| > 300 | > 300 | NC/C=C(\F)CS(=O)(=O)c1cccc(N(CCCc2cn(CCCCC[C@@H]3SC[C@@H]4NC(=O)N[C@@H]43)nn2)CCCc2cn(CCCCC[C@@H]3SC[C@@H]4NC(=O)N[C@@H]43)nn2)c1 [Compound 1-13, (3aS,3a'S,4S,4'S,6aR,6a′R)-4,4′-(((((3-(((Z)-4-amino-2-fluorobut-2-en-1-yl)sulfonyl)phenyl)azanediyl)bis(propane-3,1-diyl))bis(1H-1,2,3-triazole-4,1-diyl))bis(pentane-5,1-diyl))bis(tetrahydro-1H-thieno[3,4-d]imidazol-2(3H)-one) hydrochloride] |
| < 300 | > 300 | CN(C)S(=O)(=O)c1ccc(C(OCc2ccc(-n3cc(CNC(=O)CCOCCOCCOCCOCCNC(=O)CCCC[C@@H]4SC[C@@H]5NC(=O)N[C@@H]54)nn3)cc2)c2cn(C/C(F)=C/CN)nn2)cc1 (stereo partly drawn) [Compound 1-16, N-((1-(4-(((1-((Z)-4-amino-2-fluorobut-2-en-1-yl)-1H-1,2,3-triazol-4-yl)(4-(N,N-dimethylsulfamoyl)phenyl)methoxy)methyl)phenyl)-1H-1,2,3-triazol-4-yl)methyl)-1-(5-((3aS,4S,6aR)-2-oxohexahydro-1H-thieno[3,4-d]imidazol-4-yl)pentanamido)-3,6,9,12-tetraoxapentadecan-15-amide hydrochloride] |
| > 300 | > 300 | NC/C=C(\F)CS(=O)(=O)c1cccc(NCCCc2cn(CCCCC[C@@H]3SC[C@@H]4NC(=O)N[C@@H]43)nn2)c1 [Compound 1-14, hydrochloride] |
| > 300 | > 300 | NC/C=C(\F)CS(=O)(=O)c1cccc(C(=O)Nc2cc(C(=O)N3CCN(C(=O)CCCC[C@@H]4SC[C@@H]5NC(=O)N[C@@H]54)CC3)cc(C(=O)N3CCN(C(=O)CCCC[C@@H]4SC[C@@H]5NC(=O)N[C@@H]54)CC3)c2)c1 [Compound 1-10, 3-(((Z)-4-amino-2-fluorobut-2-en-1-yl)sulfonyl)-N-(3,5-bis(4-(5-((3aS,4S,6aR)-2-oxohexahydro-1H-thieno[3,4-d]imidazol-4-yl)pentanoyl)piperazine-1-carbonyl)phenyl)benzamide hydrochloride] |
